Data as given in the kinase profiling compilation of Christmann-Franck et al. (2016).

What was measured:
Test in all cases: KINOMEscan competition binding
Conditions in all cases: compound 10.0 µM
AAK1 (human) = AAK1 (human) (UniProt Q2M2I8)
ACVR2B (human) = ACVR2B (human) (UniProt Q13705)
ALK (human) = ALK (human) (UniProt Q9UM73)
BLK (human) = BLK (human) (UniProt P51451)
BMPR2 (human) = BMPR2 (human) (UniProt Q13873)
CAMK1D (human) = CAMK1D (human) (UniProt Q8IU85)
CAMK2D (human) = CAMK2D (human) (UniProt Q13557)
CDC2L2 (human) = CDC2L2 (human) (UniProt Q9UQ88)
CDK2 (human) = CDK2 (human) (UniProt P24941)
CDK4 CCND1 (human) = CDK4 CCND1 (human) (UniProt P11802+P24385)
CHEK2 (human) = CHEK2 (human) (UniProt O96017)
CSNK1G2 (human) = CSNK1G2 (human) (UniProt P78368)
DDR1 (human) = DDR1 (human) (UniProt Q08345)
DYRK1B (human) = DYRK1B (human) (UniProt Q9Y463)
EGFR (human) = EGFR (human) (UniProt P00533)
EPHA1 (human) = EPHA1 (human) (UniProt P21709)
EPHA2 (human) = EPHA2 (human) (UniProt P29317)
EPHB2 (human) = EPHB2 (human) (UniProt P29323)
EPHB6 (human) = EPHB6 (human) (UniProt O15197)
MAP2K2 (human) = MAP2K2 (human) (UniProt P36507)
MAPK11 (human) = MAPK11 (human) (UniProt Q15759)
MERTK (human) = MERTK (human) (UniProt Q12866)
MYLK3 (human) = MYLK3 (human) (UniProt Q32MK0)
NEK11 (human) = NEK11 (human) (UniProt Q8NG66)
NIM1 (human) = NIM1 (human) (UniProt Q8IY84)
NTRK3 (human) = NTRK3 (human) (UniProt Q16288)
NUAK1 (human) = NUAK1 (human) (UniProt O60285)
PAK6 (human) = PAK6 (human) (UniProt Q9NQU5)
PIP4K2B (human) = PIP4K2B (human) (UniProt P78356)
PRKD2 (human) = PRKD2 (human) (UniProt Q9BZL6)
ROCK2 (human) = ROCK2 (human) (UniProt O75116)
RPS6KA3 KD1 (human) = RPS6KA3 KD1 (human) (UniProt P51812)
RPS6KB1 (human) = RPS6KB1 (human) (UniProt P23443)
SRPK3 (human) = SRPK3 (human) (UniProt Q9UPE1)
STK32B (human) = STK32B (human) (UniProt Q9NY57)
STK33 (human) = STK33 (human) (UniProt Q9BYT3)
STK38 (human) = STK38 (human) (UniProt Q15208)
TEC (human) = TEC (human) (UniProt P42680)
TGFBR2 (human) = TGFBR2 (human) (UniProt P37173)
TSSK1B (human) = TSSK1B (human) (UniProt Q9BXA7)

Sequence of RPS6KA3 KD1 (human) (P51812 whole entry, looked up): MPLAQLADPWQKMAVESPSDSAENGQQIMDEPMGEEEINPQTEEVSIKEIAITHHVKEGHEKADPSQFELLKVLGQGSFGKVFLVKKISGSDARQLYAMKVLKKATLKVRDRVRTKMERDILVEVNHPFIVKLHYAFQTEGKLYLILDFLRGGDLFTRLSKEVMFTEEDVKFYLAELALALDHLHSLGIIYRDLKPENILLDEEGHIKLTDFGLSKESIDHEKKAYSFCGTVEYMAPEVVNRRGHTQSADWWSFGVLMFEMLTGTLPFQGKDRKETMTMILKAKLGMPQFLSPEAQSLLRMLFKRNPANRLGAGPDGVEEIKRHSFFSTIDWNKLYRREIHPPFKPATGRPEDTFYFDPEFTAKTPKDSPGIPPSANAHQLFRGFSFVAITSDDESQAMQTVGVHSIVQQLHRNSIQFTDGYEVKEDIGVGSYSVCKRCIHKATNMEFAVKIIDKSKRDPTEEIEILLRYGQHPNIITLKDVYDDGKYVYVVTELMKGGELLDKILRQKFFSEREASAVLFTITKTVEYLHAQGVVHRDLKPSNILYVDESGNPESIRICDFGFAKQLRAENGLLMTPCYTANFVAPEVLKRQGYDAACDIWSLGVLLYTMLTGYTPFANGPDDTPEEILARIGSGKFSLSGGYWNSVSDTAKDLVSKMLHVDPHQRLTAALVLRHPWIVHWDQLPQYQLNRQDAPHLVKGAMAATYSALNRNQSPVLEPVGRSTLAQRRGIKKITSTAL
Sequence of MERTK (human) (Q12866 whole entry, looked up): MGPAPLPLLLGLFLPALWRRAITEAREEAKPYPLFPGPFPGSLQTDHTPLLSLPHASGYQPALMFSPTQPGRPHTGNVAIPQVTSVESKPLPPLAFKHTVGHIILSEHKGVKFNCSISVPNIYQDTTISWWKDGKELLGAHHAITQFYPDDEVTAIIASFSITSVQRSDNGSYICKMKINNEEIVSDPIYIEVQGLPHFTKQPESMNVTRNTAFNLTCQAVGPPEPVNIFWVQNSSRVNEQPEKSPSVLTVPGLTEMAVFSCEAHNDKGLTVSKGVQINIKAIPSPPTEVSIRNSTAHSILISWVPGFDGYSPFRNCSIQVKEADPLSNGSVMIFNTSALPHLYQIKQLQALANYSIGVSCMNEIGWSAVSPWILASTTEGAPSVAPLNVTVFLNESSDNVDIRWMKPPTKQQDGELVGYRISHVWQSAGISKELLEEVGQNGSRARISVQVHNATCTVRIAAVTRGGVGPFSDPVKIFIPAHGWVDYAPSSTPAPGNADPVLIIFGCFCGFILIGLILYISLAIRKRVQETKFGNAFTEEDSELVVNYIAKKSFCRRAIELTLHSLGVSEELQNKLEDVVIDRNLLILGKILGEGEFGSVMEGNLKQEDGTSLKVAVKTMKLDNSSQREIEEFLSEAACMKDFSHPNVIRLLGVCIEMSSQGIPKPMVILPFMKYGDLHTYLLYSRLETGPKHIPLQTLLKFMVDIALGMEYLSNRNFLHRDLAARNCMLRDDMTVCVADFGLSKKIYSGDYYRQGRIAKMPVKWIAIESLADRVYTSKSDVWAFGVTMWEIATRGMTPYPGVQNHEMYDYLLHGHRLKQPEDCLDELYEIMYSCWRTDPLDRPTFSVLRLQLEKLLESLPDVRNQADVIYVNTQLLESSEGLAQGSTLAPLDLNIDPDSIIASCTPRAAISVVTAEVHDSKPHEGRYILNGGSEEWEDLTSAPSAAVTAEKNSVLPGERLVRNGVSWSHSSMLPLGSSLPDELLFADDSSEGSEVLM
Sequence of CDC2L2 (human) (Q9UQ88 whole entry, looked up): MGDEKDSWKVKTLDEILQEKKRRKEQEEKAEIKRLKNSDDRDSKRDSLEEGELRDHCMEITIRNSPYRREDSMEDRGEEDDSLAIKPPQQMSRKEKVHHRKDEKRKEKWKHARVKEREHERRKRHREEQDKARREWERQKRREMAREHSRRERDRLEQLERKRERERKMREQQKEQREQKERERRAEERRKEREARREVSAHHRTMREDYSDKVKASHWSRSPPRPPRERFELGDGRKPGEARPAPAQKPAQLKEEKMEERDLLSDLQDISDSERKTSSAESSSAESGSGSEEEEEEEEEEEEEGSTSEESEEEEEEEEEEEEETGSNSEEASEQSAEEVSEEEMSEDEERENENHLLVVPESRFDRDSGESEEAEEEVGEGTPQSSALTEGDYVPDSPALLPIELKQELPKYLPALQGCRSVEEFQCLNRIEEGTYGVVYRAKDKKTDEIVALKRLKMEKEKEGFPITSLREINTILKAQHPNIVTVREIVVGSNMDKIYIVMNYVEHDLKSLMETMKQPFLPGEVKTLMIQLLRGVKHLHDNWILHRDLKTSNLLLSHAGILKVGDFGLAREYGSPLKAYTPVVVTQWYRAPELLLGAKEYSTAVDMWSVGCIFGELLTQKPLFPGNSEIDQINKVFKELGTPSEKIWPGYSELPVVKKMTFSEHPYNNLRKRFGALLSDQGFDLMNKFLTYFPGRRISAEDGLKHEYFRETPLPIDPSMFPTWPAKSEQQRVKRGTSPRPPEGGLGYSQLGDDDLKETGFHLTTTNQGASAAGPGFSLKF
Sequence of CSNK1G2 (human) (P78368 whole entry, looked up): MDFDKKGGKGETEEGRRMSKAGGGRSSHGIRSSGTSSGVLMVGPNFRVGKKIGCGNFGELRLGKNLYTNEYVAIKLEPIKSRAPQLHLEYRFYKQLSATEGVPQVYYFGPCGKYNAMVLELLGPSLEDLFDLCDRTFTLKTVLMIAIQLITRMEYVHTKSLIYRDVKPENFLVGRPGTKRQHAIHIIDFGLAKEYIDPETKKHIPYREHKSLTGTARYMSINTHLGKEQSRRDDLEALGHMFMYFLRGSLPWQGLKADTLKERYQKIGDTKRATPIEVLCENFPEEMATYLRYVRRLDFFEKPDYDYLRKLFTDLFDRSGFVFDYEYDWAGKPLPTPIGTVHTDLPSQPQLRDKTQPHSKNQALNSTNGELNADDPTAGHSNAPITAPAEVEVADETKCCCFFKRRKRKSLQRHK
Sequence of PAK6 (human) (Q9NQU5 whole entry, looked up): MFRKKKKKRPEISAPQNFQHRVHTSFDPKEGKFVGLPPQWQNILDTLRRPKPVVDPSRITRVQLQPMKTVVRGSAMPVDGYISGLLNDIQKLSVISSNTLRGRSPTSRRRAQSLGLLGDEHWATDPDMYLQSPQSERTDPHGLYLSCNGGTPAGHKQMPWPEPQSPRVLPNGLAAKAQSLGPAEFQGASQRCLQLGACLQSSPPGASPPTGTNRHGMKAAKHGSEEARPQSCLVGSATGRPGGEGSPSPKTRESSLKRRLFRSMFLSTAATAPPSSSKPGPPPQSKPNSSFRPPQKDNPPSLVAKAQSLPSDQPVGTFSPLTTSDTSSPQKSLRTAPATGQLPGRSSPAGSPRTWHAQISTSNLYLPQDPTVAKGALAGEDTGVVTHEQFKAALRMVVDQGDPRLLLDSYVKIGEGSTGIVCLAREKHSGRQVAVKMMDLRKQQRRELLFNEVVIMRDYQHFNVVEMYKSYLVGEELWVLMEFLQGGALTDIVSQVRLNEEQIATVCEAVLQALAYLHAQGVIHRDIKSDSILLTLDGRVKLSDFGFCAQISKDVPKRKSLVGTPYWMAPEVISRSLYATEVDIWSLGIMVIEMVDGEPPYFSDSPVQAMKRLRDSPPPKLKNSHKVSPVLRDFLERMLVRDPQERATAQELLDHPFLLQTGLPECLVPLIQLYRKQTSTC
Sequence of PRKD2 (human) (Q9BZL6 whole entry, looked up): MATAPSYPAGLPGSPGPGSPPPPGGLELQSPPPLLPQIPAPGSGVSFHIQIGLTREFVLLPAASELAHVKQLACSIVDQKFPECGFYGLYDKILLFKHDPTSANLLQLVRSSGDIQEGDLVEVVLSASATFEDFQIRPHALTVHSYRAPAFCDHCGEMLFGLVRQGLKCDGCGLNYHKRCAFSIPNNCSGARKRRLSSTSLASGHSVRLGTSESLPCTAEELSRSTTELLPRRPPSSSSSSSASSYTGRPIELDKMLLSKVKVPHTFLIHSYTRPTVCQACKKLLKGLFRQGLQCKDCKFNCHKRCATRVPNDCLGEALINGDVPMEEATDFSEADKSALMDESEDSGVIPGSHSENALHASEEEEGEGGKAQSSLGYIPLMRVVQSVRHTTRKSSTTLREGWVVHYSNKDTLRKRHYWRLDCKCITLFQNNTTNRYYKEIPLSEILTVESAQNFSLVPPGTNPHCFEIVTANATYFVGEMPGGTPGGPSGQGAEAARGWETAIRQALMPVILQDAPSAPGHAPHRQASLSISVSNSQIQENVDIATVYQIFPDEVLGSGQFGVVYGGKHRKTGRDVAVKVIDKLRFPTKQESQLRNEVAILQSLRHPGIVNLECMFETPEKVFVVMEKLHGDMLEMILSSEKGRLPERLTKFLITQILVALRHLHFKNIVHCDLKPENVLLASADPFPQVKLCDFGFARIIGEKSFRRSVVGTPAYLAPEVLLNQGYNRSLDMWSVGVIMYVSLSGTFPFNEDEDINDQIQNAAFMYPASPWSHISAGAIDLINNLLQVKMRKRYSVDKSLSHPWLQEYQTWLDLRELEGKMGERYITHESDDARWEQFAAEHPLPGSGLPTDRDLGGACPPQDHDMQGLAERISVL
Sequence of STK32B (human) (Q9NY57 whole entry, looked up): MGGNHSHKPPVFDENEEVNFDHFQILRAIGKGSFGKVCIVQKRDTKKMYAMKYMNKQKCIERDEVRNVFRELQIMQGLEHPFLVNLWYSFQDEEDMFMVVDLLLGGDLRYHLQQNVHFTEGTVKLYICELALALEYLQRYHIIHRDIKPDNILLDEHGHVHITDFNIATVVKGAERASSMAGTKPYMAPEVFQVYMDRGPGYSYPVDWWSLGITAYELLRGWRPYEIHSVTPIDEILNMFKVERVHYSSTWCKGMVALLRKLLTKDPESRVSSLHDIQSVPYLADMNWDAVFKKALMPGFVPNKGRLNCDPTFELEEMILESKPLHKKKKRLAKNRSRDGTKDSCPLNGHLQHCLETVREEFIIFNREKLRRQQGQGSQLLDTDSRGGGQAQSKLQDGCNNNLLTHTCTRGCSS

## CCN1CCN(C(=O)Cc2ccc(Nc3ncc(F)c(Nc4ccc(C(=O)Nc5ccccc5Cl)cc4)n3)cc2)CC1
AAK1 (human)
  kinase still bound, per cent of control: 7%
ACVR2B (human)
  kinase still bound, per cent of control: 38%
ALK (human)
  kinase still bound, per cent of control: 22%
BLK (human)
  kinase still bound, per cent of control: 28%
BMPR2 (human)
  kinase still bound, per cent of control: 25%
CAMK1D (human)
  kinase still bound, per cent of control: 5.6%
CAMK2D (human)
  kinase still bound, per cent of control: 71%
CDC2L2 (human)
  kinase still bound, per cent of control: 95%
CDK2 (human)
  kinase still bound, per cent of control: 80%
CDK4 CCND1 (human)
  kinase still bound, per cent of control: 34%
CHEK2 (human)
  kinase still bound, per cent of control: 70%
CSNK1G2 (human)
  kinase still bound, per cent of control: 58%
DDR1 (human)
  kinase still bound, per cent of control: 22%
DYRK1B (human)
  kinase still bound, per cent of control: 46%
EGFR (human)
  kinase still bound, per cent of control: 26%
EPHA1 (human)
  kinase still bound, per cent of control: 27%
EPHA2 (human)
  kinase still bound, per cent of control: 51%
EPHB2 (human)
  kinase still bound, per cent of control: 93%
EPHB6 (human)
  kinase still bound, per cent of control: 15%
MAP2K2 (human)
  kinase still bound, per cent of control: 57%
MAPK11 (human)
  kinase still bound, per cent of control: 81%
MERTK (human)
  kinase still bound, per cent of control: 2%
MYLK3 (human)
  kinase still bound, per cent of control: 100%
NEK11 (human)
  kinase still bound, per cent of control: 100%
NIM1 (human)
  kinase still bound, per cent of control: 79%
NTRK3 (human)
  kinase still bound, per cent of control: 78%
NUAK1 (human)
  kinase still bound, per cent of control: 18%
PAK6 (human)
  kinase still bound, per cent of control: 65%
PIP4K2B (human)
  kinase still bound, per cent of control: 1.6%
PRKD2 (human)
  kinase still bound, per cent of control: 100%
ROCK2 (human)
  kinase still bound, per cent of control: 75%
RPS6KA3 KD1 (human)
  kinase still bound, per cent of control: 32%
RPS6KB1 (human)
  kinase still bound, per cent of control: 39%
SRPK3 (human)
  kinase still bound, per cent of control: 7.8%
STK32B (human)
  kinase still bound, per cent of control: 100%
STK33 (human)
  kinase still bound, per cent of control: 35%
STK38 (human)
  kinase still bound, per cent of control: 70%
TEC (human)
  kinase still bound, per cent of control: 42%
TGFBR2 (human)
  kinase still bound, per cent of control: 100%
TSSK1B (human)
  kinase still bound, per cent of control: 100%

## COc1cc2ncnc(-n3nc(-c4ccccn4)nc3N)c2cc1OC
AAK1 (human)
  kinase still bound, per cent of control: 6.9%
ACVR2B (human)
  kinase still bound, per cent of control: 49%
ALK (human)
  kinase still bound, per cent of control: 45%
BLK (human)
  kinase still bound, per cent of control: 8.8%
BMPR2 (human)
  kinase still bound, per cent of control: 88%
CAMK1D (human)
  kinase still bound, per cent of control: 34%
CAMK2D (human)
  kinase still bound, per cent of control: 55%
CDC2L2 (human)
  kinase still bound, per cent of control: 100%
CDK2 (human)
  kinase still bound, per cent of control: 50%
CDK4 CCND1 (human)
  kinase still bound, per cent of control: 47%
CHEK2 (human)
  kinase still bound, per cent of control: 78%
CSNK1G2 (human)
  kinase still bound, per cent of control: 1.1%
DDR1 (human)
  kinase still bound, per cent of control: 88%
DYRK1B (human)
  kinase still bound, per cent of control: 2%
EGFR (human)
  kinase still bound, per cent of control: 52%
EPHA1 (human)
  kinase still bound, per cent of control: 14%
EPHA2 (human)
  kinase still bound, per cent of control: 27%
EPHB2 (human)
  kinase still bound, per cent of control: 47%
EPHB6 (human)
  kinase still bound, per cent of control: 2.2%
MAP2K2 (human)
  kinase still bound, per cent of control: 74%
MAPK11 (human)
  kinase still bound, per cent of control: 8.2%
MERTK (human)
  kinase still bound, per cent of control: 29%
MYLK3 (human)
  kinase still bound, per cent of control: 100%
NEK11 (human)
  kinase still bound, per cent of control: 80%
NIM1 (human)
  kinase still bound, per cent of control: 89%
NTRK3 (human)
  kinase still bound, per cent of control: 100%
NUAK1 (human)
  kinase still bound, per cent of control: 100%
PAK6 (human)
  kinase still bound, per cent of control: 55%
PIP4K2B (human)
  kinase still bound, per cent of control: 44%
PRKD2 (human)
  kinase still bound, per cent of control: 65%
ROCK2 (human)
  kinase still bound, per cent of control: 20%
RPS6KA3 KD1 (human)
  kinase still bound, per cent of control: 2.8%
RPS6KB1 (human)
  kinase still bound, per cent of control: 2.6%
SRPK3 (human)
  kinase still bound, per cent of control: 38%
STK32B (human)
  kinase still bound, per cent of control: 100%
STK33 (human)
  kinase still bound, per cent of control: 6.4%
STK38 (human)
  kinase still bound, per cent of control: 51%
TEC (human)
  kinase still bound, per cent of control: 100%
TGFBR2 (human)
  kinase still bound, per cent of control: 9%
TSSK1B (human)
  kinase still bound, per cent of control: 60%

## CN(C)C/C=C/C(=O)Nc1ccc(C(=O)Nc2cccc(Nc3nccc(-c4cccnc4)n3)c2)cc1
AAK1 (human)
  kinase still bound, per cent of control: 5.2%
ACVR2B (human)
  kinase still bound, per cent of control: 98%
ALK (human)
  kinase still bound, per cent of control: 100%
BLK (human)
  kinase still bound, per cent of control: 100%
BMPR2 (human)
  kinase still bound, per cent of control: 100%
CAMK1D (human)
  kinase still bound, per cent of control: 100%
CAMK2D (human)
  kinase still bound, per cent of control: 67%
CDC2L2 (human)
  kinase still bound, per cent of control: 100%
CDK2 (human)
  kinase still bound, per cent of control: 100%
CDK4 CCND1 (human)
  kinase still bound, per cent of control: 100%
CHEK2 (human)
  kinase still bound, per cent of control: 86%
CSNK1G2 (human)
  kinase still bound, per cent of control: 100%
DDR1 (human)
  kinase still bound, per cent of control: 100%
DYRK1B (human)
  kinase still bound, per cent of control: 24%
EGFR (human)
  kinase still bound, per cent of control: 100%
EPHA1 (human)
  kinase still bound, per cent of control: 76%
EPHA2 (human)
  kinase still bound, per cent of control: 97%
EPHB2 (human)
  kinase still bound, per cent of control: 100%
EPHB6 (human)
  kinase still bound, per cent of control: 3.9%
MAP2K2 (human)
  kinase still bound, per cent of control: 87%
MAPK11 (human)
  kinase still bound, per cent of control: 88%
MERTK (human)
  kinase still bound, per cent of control: 100%
MYLK3 (human)
  kinase still bound, per cent of control: 87%
NEK11 (human)
  kinase still bound, per cent of control: 100%
NIM1 (human)
  kinase still bound, per cent of control: 94%
NTRK3 (human)
  kinase still bound, per cent of control: 65%
NUAK1 (human)
  kinase still bound, per cent of control: 61%
PAK6 (human)
  kinase still bound, per cent of control: 46%
PIP4K2B (human)
  kinase still bound, per cent of control: 56%
PRKD2 (human)
  kinase still bound, per cent of control: 100%
ROCK2 (human)
  kinase still bound, per cent of control: 41%
RPS6KA3 KD1 (human)
  kinase still bound, per cent of control: 62%
RPS6KB1 (human)
  kinase still bound, per cent of control: 100%
SRPK3 (human)
  kinase still bound, per cent of control: 28%
STK32B (human)
  kinase still bound, per cent of control: 100%
STK33 (human)
  kinase still bound, per cent of control: 100%
STK38 (human)
  kinase still bound, per cent of control: 90%
TEC (human)
  kinase still bound, per cent of control: 100%
TGFBR2 (human)
  kinase still bound, per cent of control: 50%
TSSK1B (human)
  kinase still bound, per cent of control: 100%
